Laboratory results taken from BindingDB's records for doi:10.1021/acs.jmedchem.5b01170 (University of Arizona, 2015).

Target: Delta-type opioid receptor (Mus musculus, UniProt P32300)
Assay: Agonist activity at delta opioid receptor in ICR mouse isolated vas deferens assessed as inhibition of electrically-stimulated muscle contraction

Delta-type opioid receptor, sequence (P32300 whole entry): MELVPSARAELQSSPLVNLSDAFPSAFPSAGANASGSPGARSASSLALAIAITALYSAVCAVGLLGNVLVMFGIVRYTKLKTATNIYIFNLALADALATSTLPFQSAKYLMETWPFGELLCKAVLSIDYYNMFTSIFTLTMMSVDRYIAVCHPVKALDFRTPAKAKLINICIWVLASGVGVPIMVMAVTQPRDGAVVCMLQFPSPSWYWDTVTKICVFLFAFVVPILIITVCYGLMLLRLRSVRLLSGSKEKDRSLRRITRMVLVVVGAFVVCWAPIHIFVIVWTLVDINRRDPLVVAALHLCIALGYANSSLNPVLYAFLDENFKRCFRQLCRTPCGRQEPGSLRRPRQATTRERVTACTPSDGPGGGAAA

With `CC(C)C[C@H](NC(=O)[C@@H]1CCCN1C(=O)[C@H](Cc1ccc(F)cc1)NC(=O)CNC(=O)[C@@H](C)NC(=O)[C@@H](N)Cc1ccc(O)cc1)C(=O)N[C@@H](Cc1c[nH]c2ccccc12)C(=O)NCc1cc(C(F)(F)F)cc(C(F)(F)F)c1` the IC50 was 0.012 µM.
